In patent US5045566A, “Novel imidate insecticides” (ICI Americas Inc., priority 1989, dated 1991):

Key:
Assay type in all cases: in vivo
[1] = system: Tobacco Budworm [Heliothis virescens (Fabricius)] eggs; experiment: Tobacco budworm eggs (TBW-E); details: percent in solution; 2-day old eggs
Method in brief: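 Step 1: dip 2-day old egg patches in acetone test solutions (top concentration 0.1%). Step 2: hold in dishes with rearing medium at 78° F. Step 3: record mortality after control hatch and feeding.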

[2] = system: Aster Leafhopper [Macrosteles fascifrens (Stal)]; experiment: Aster leafhopper on dipped oat seedlings (LH), 48 hours; details: percent in solution, adults/nymphs
Procedure: The compounds in Tables 1 and 2 above were tested for insecticidal activity using the following testing procedures. LC50 values, based on the results of these tests and calculated according to dosage-mortality curves, are expressed in Table 3.
Aster Leafhopper [Macrosteles fascifrens (Stal)]
Oat seedlings (Avena sp) were grown in a commercial potting soil in cups. When the plants were approximately 10 cm tall they were thinned to three plants per cup and dipped for 2-3 seconds in 50-50 acetone-water solutions of the test compounds. When the plants had dried, a clear plastic tube was placed over them and the bottom end pressed into the cup. Ten aster leafhopper adults/nymphs were then placed in each tube and the tops of the tubes covered with white organdy cloth. Mortality counts were made after 48 hours. Test concentrations ranged from 0.05% down to that at which 50% mortality occurred. The LC50 values are expressed below in Table 3 under the heading "LH" in terms of the percent of the test compound in the solution.

[3] = system: Cabbage Looper [Trichoplusia ni (Hubner)]; experiment: Cabbage looper leaf dip (CL), 3-5 days; details: percent in solution, second-instar larvae
Method in brief: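 Squash cotyledons dipped in test solution (acetone-water 50-50, ≤0.1%), dried, offered to 5 second-instar larvae; mortality after 3-5 days gives LC50.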

[4] = system: Housefly [Musca domestica]; experiment: Housefly contact mortality in dishes (HF), 48 hours; details: μg of test compound per 25 female flies
Method in brief: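 Acetone solutions (with 0.01% peanut oil) dried onto dish bottoms, then 25 female flies, 1-2 days old, caged over the residue with sugar water. Mortality scored at 48 hours; LC50 from dosage-mortality curves, in μg per 25 female flies, top level 100 μg.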

[5] = system: Black Bean Aphid [Aphis fabae (Scop.)]; experiment: Black bean aphid spray test on nasturtium (BBA), 48 hours; details: percent of test compound in sprayed solution
Method in brief: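 LC50, given as percent test compound in the sprayed liquid, was calculated from dosage-mortality curves using concentrations from 0.05% downward. Sprays in 50:50 acetone-water went to runoff on ~5 cm nasturtiums carrying 25-50 aphids of mixed ages, one day after infestation. Deaths were counted 48 h later under greenhouse conditions.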

[6] = system: Maize weevil [Sitophilus zeamais (Motschulsky)]; experiment: Maize weevil on dipped corn seeds (MW), 48 hours; details: percent in solution, adult weevils
Method in brief: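 LC50, given as percent of compound in dipping solution, comes from dosage-mortality curves over concentrations descending from 0.01%. Four corn seeds soaked 2-3 s in 50:50 acetone:water solution were dried and held with 10 adult weevils, about 25° C, mortality read after 48 h.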

Row | SMILES | LC50 TBW E (eggs) [1] | LC50 LH [2] | LC50 CL [3] | LC50 HF [4] | LC50 BBA [5] | LC50 MW [6]
1 | CC(C)CC(=Nc1cc(Cl)cc(Cl)c1)OCc1cccc(Oc2ccccc2)c1 [Compound 10] | > 0.1% | > 0.05% | 0.01% | > 100 µg | 0.05% | –
2 | CC(C)C(=Nc1cc(Cl)cc(Cl)c1)OCc1cccc(Oc2ccccc2)c1 [Compound 16] | 0.04% | 0.0005% | 0.004% | 20 µg | 0.0004% | –
3 | CC(C)C(=Nc1cc(Cl)c(Cl)c(Cl)c1)OCc1cccc(Oc2ccccc2)c1 [Compound 20] | < 0.1% | 0.003% | 0.0025% | 64 µg | 0.0006% | –
4 | Fc1ccc(N=C(OCc2cccc(Oc3ccccc3)c2)C(Cl)=C(Cl)Cl)cc1 [Compound 49] | > 0.05% | > 0.05% | 0.007% | > 100 µg | 0.05% | –
5 | CC(C)C(=Nc1c(F)c(F)cc(F)c1F)OCc1cccc(Oc2ccccc2)c1 [Compound 57] | 0.1% | 0.0005% | 0.004% | > 100 µg | 0.03% | –
6 | COc1ccc(OC)c(N=C(OCc2cccc(Oc3ccccc3)c2)C(C)C)c1 [Compound 69] | > 0.1% | > 0.05% | 0.09% | > 100 µg | > 0.05% | –
7 | CC(C)C(=Nc1ccc(OC(F)(F)F)cc1)OCc1cccc(Oc2ccccc2)c1 [Compound 70] | 0.01% | > 0.05% | < 0.1% | < 100 µg | < 0.05% | –
8 | CC(C)C(=Nc1ccc(C(F)(F)F)c(Cl)c1)OCc1cccc(Oc2ccccc2)c1 [Compound 83] | > 0.1% | > 0.05% | 0.007% | > 100 µg | 0.05% | –
9 | Cc1ccc(N=C(OCc2cccc(Oc3ccccc3)c2)C(C)C)cc1Cl [Compound 90] | 0.016% | 0.001% | > 0.1% | > 100 µg | 0.0003% | –
10 | COc1c(Cl)cc(N=C(OCc2cccc(Oc3ccccc3)c2)C(C)C)cc1Cl [Compound 91] | > 0.01% | 0.003% | 0.002% | 37 µg | 0.001% | –
11 | CC(C)C(=Nc1c(Cl)cc([N+](=O)[O-])cc1Cl)OCc1cccc(Oc2ccccc2)c1 [Compound 92] | > 0.1% | > 0.05% | 0.015% | > 100 µg | > 0.05% | –
12 | Clc1ccc(N=C(OCc2cccc(Oc3ccccc3)c2)C(Cl)Cl)c2ccccc12 [Compound 98] | 0.1% | > 0.05% | 0.016% | > 100 µg | > 0.05% | –
13 | CCCC(=Nc1ccc2c(c1)OCO2)OCc1cccc(Oc2ccccc2)c1 [Compound 188] | > 0.1% | > 0.05% | 0.002% | 12 µg | – | –
14 | CC(C)C(=Nc1cc(F)ccc1Cl)OCc1ccc(F)c(Oc2ccc(F)cc2)c1 [Compound 303] | > 0.1% | 0.0005% | 0.0015% | > 100 µg | – | –
15 | CC(C)C(=Nc1ccc2c(c1)OCO2)OCc1cccc(Oc2ccc(F)cc2)n1 [Compound 465] | 0.027% | 0.0025% | 0.0017% | 8 µg | – | –
16 | C=C(C)C(=Nc1ccc(C(F)(F)F)cc1)OCc1cccc(Oc2ccc(Cl)cc2)n1 [Compound 560] | < 0.1% | – | 0.0015% | < 100 µg | 0.0025% | > 0.01%
